Type in all cases: in vivo
One series relates to Mythimna separata. The experiment in a line: Efficacy test against Mythimna separata (treated artificial feed). The following applies: 1 μl of emulsion (I) (5% by mass active ingredient) mixed with 0.8 g artificial feed; second-instar larvae; 25° C.; after five days. From the text:
(§1) 5 parts by mass of a compound of the present invention, 93.6 parts by mass of dimethylformamide, and 1.4 parts by mass of polyoxyethylene alkyl aryl ether were mixed and dissolved to obtain an emulsion (1) containing 5% by mass of the active ingredient.
(§2) 93.6 parts by mass of dimethylformamide, and 1.4 parts by mass of polyoxyethylene alkyl aryl ether were mixed and dissolved to obtain an emulsion (II).
0.8 g of commercially-available artificial feed (Insect LFS, manufactured by Nosan Corporation) and 1 μl of the emulsion (I) were mixed well, and then 0.2 g of the mixture per treated area was packed into plastic test containers (each having a capacity of 1.4 ml) as test feeds.
Two second-instar larvae of Mythimna separata were left per treated area, and then the test containers were sealed with plastic covers. The test containers were placed in a thermostatic chamber at 25° C., and, after five days had passed therefrom, the mortality and the feed intake were measured. The test was repeated twice.
(§3) In addition, the test was conducted under the same conditions as described above, except that the emulsion (II) was used instead of the emulsion (I), and evaluated as a solvent control area.
The compounds A-2, A-3, A-4, A-9, A-10, A-11, A-15, and A-16 were subjected to an efficacy test against Mythimna separata. […] The mortality was calculated in accordance with the following equation. Mortality (%)=(Died insect number/Tested insect number)×100

In another series the test system is Spodoptera litura. The experiment in a line: Efficacy test against Spodoptera litura (cabbage leaf dip). The following applies: foliar, 144 h, 125 ppm by mass, cabbage leaf immersed 30 seconds, second-instar larvae, 25° C., humidity 60%, after six days. The protocol: as §1
The emulsion (I) was diluted with water such that the amount of the compound of the present invention became 125 ppm by mass. A cabbage leaf was immersed in the diluted solution for 30 seconds. The cabbage leaf was air-dried and then put in a petri dish, followed by leaving five second-instar larvae of Spodoptera litura therein. The petri dish was placed in a thermostatic chamber at a temperature of 25° C. and a humidity of 60%. After six days had passed from leaving the larvae, life or death was assessed and the mortality was calculated. The test was repeated twice.

In a further series the test system is Helicoverpa armigera. The experiment in a line: Efficacy test against Helicoverpa armigera (cabbage leaf dip). The following applies: foliar, 144 h, 125 ppm by mass, cabbage leaf immersed 30 seconds, second-instar larvae, 25° C., humidity 60%, after six days.
The test system of another series is Aphis gossypii. As to the kind of experiment: Efficacy test against Aphis gossypii (spray on cucumber). The conditions noted are these: 120 h, 125 ppm by mass sprayed on cucumber, first-instar larvae, 25° C., humidity 60%, after five days.
Text: as §1
Cucumber was sown in a 3-sun pot. After ten days had passed from germination, a female adult of Aphis gossypii was left on the cucumber. On the next day, laid first-instar larvae were left, and the female adult was removed. The emulsion (I) was diluted with water such that the amount of the compound of the present invention became 125 ppm by mass. The diluted solution was sprayed on the cucumber. Then, the cucumber was placed in a thermostatic chamber at a temperature of 25° C. and a humidity of 60%. After five days had passed therefrom, life or death of Aphis gossypii was assessed and the mortality was calculated.

For another series, the system named is Tetranychus urticae. The experiment in a line: Efficacy test against Tetranychus urticae (spray on kidney bean). The conditions noted are these: 125 ppm by mass sprayed on kidney bean; female adults removed after three days; living number counted ten days after spraying; 25° C., humidity 65%.
Text: as §1, §2
Five female adults of Tetranychus urticae were left on primary leaves of kidney bean planted in a 3-sun pot. The emulsion (I) was diluted with water such that the amount of the compound of the present invention became 125 ppm by mass. The diluted solution was sprayed on the kidney bean and evaluated as a treated area. The 3-sun pot was placed in a thermostatic chamber at a temperature of 25° C. and a humidity of 65%, and after three days had passed from spraying, the female adults of Tetranychus urticae were removed to leave only laid eggs remaining on the leaves. After ten days had passed from spraying, the number of living Tetranychus urticae was counted. The test was repeated twice.
as §3
The control ratio was calculated in accordance with the following equation. Control ratio (%)=100×[1−Nt/Nc] […]

The test system of the next series is Nilaparvata lugens. As to the kind of experiment: Efficacy test against Nilaparvata lugens (rice seedling dip). The following applies: 240 h, 125 ppm by mass, rice seedling immersed 30 seconds, second-instar larvae, 25° C., humidity 65%, after ten days. As to the method: as §1
The emulsion (I) was diluted with water such that the amount of the compound of the present invention became 125 ppm by mass. A rice seedling was immersed in the diluted solution for 30 seconds, air-dried, and then placed in a plastic case, followed by leaving five second-instar larvae of Nilaparvata lugens therein. The plastic case was placed in a thermostatic chamber at a temperature of 25° C. and a humidity of 65%. After ten days had passed therefrom, life or death was assessed and the mortality was calculated. The test was repeated twice.

For `O=C([N-][n+]1cnn(CC(F)(F)F)c1)c1ccc(-c2ccc(OC(F)(F)C(F)F)cc2)c(Cl)c1` [Compound A-4], in the series with Mythimna separata, the “mortality or feed intake relative to the feed intake at the solvent control area” value is 100% mortality of Mythimna separata or 10% or less of the feed intake. Besides, the mortality (in general, the percentage killed) at 125 ppm with Spodoptera litura was at least 80%.

Regarding `O=C([N-][n+]1ccccn1)c1ccc(-c2ccc(OC(F)(F)C(F)F)cc2)nc1` [Compound A-2], the “mortality or feed intake relative to the feed intake at the solvent control area” value with Mythimna separata is on record as 100% mortality of Mythimna separata or 10% or less of the feed intake.

With `Cn1cc[n+]([N-]C(=O)c2ccc(-c3ccc(OC(F)(F)C(F)F)cc3)cc2)c1` [Compound A-9], in the series with Mythimna separata, the “mortality or feed intake relative to the feed intake at the solvent control area” value is given as 100% mortality of Mythimna separata or 10% or less of the feed intake. Moreover, the mortality at 125 ppm in the series with Helicoverpa armigera is at least 90%; in the series on Spodoptera litura, at least 80%.

Regarding `O=C([N-][n+]1ccncc1)c1ccc(-c2ccc(OC(F)(F)F)cc2)cc1` [Compound A-15], the “mortality or feed intake relative to the feed intake at the solvent control area” value in the series with Mythimna separata is recorded as 100% mortality of Mythimna separata or 10% or less of the feed intake.

Consider `O=C([N-][n+]1ccncc1)c1ccc(C(F)(F)F)cc1` [Compound A-19], for which the mortality at 125 ppm in the series with Aphis gossypii is at least 80%.

For the molecule `O=C([N-][n+]1ccccn1)c1ccc(-c2ccc(OC(F)(F)F)cc2)cc1` [Compound A-16], the “mortality or feed intake relative to the feed intake at the solvent control area” value in the series on Mythimna separata was 100% mortality of Mythimna separata or 10% or less of the feed intake.

In the case of `O=C([N-][n+]1ccccn1)c1ccc(C(F)(F)F)cc1` [Compound A-18], the control ratio with Tetranychus urticae was at least 90%.

For the molecule `O=C([N-][n+]1ccccn1)c1ccc(-c2ccc(OC(F)(F)C(F)F)cc2)cc1` [Compound A-11], the “mortality or feed intake relative to the feed intake at the solvent control area” value with Mythimna separata is recorded as 100% mortality of Mythimna separata or 10% or less of the feed intake. In addition, the mortality at 125 ppm in the series on Nilaparvata lugens and in the series on Spodoptera litura was at least 80% each time.

`O=C([N-][n+]1ccsc1)c1ccc(-c2ccc(OC(F)(F)C(F)F)cc2)cc1` [Compound A-10]: the “mortality or feed intake relative to the feed intake at the solvent control area” value with Mythimna separata was 100% mortality of Mythimna separata or 10% or less of the feed intake.

As for `Cn1cc[n+]([N-]C(=O)c2ccc(-c3ccc(OC(F)(F)F)cc3)cc2)c1` [Compound A-13], the mortality at 125 ppm with Spodoptera litura was at least 80%.

With `O=C([N-][n+]1ccccn1)c1ccc(-c2ccc(OCC(F)(F)F)nc2)nc1` [Compound A-3], the “mortality or feed intake relative to the feed intake at the solvent control area” value with Mythimna separata is 100% mortality of Mythimna separata or 10% or less of the feed intake.

Source of the values: patent US12384749B2, “Onium salt of nitrogen-containing heteroaryl compound and pest control agent” (Nippon Soda Co., Ltd., priority 2019, dated 2025).
